The text below walks through data of US20120107248A1, “IMAGING GASTROINTESTINAL VOLUMES AND MOTILITY” (MAYO FOUNDATION FOR MEDICAL EDUCATION AND RESEARCH, priority 2009, published 2012).

The conditions of data set [1]: in vivo; cited from earlier work.
In the next data set the test system is gastric wall. Kind of data set: Abdominal MRI studies in mice with automated segmentation (Example 5). It counts as in vivo. How it is done: Ten abdominal MRI studies in mice were performed under three conditions in sequential order: fasting pre-contrast, fasting post-contrast, and postprandial post-contrast (after feeding with 80 μL egg yolk). Five studies each were conducted with a commercially-available gadolinium contrast agent (gadopentetic acid, Magnevist™) and with Gd-DOTA-3COOH-S-Pantoprazole. Mice were administered 2.5 mg of Magnevist or Gd-DOTA-3COOH-S-Pantoprazole in a volume of 10 μL intravenously. […] In these images the gastric lumen is marked “s.” The images were analyzed by standard techniques (i.e., full-width-half-maximum method). Following administration of Magnevist, the uptake signal increased diffusely, as shown by the arrow. […] In the Gd-DOTA-3COOH-S-Pantoprazole study, the algorithm only identified the stomach boundary after contrast, i.e., fasting and postprandial images, but the conjugate was capable of discriminating the stomach wall from its contents and surrounding tissues. Comparison of gastric wall signal intensity over time after intravenous Magnevist and Gd-DOTA-3COOH-S-Pantoprazole is shown in FIG. 9. Data were sampled at 120 equidistant points around the gastric wall.

As to `O=C([O-])CN(CCN(CC(=O)[O-])CC(=O)O)CCN(CC(=O)[O-])CC(=O)O.[Gd+3]` [Gd(DTPA), gadolinium diethylenetriaminepentaacetate], the blood clearance time result in data set [1] was “approximately 2 minutes”.

As to `CNC[C@H](O)[C@@H](O)[C@H](O)[C@H](O)CO.CNC[C@H](O)[C@@H](O)[C@H](O)[C@H](O)CO.O=C([O-])CN(CCN(CC(=O)[O-])CC(=O)O)CCN(CC(=O)[O-])CC(=O)O.[Gd+3]` [Magnevist, gadopentetic acid, reference compound], in the data set on gastric wall (2.5 mg intravenously, FIG. 7), the “splenic uptake / gastro-splenic boundary” value is recorded as “marked splenic uptake”. Further, the “gastric wall signal and automated segmentation of the gastric outline” value in the data set with gastric wall (2.5 mg intravenously, full-width-half-maximum method, FIG. 6) is given as “could not accurately identify the gastric outline”. Besides, the “gastric wall signal intensity over time: difference between fasting post contrast and postprandial post contrast images” value in the data set on gastric wall (120 equidistant points around the gastric wall, FIG. 9) is “higher difference”. The “gastric wall thickness measurements” value in the data set on gastric wall (segmentation algorithm, FIG. 7 and FIG. 8) is “overestimates stomach wall thickness”.
